From US6362188B1, “Farnesyl protein transferase inhibitors” (Schering Corporation, priority 1998, dated 2002) come the findings set out here.

For this assay, the system named is Human tumor cells. As to the kind of experiment: Soft Agar Assay (anchorage-independent growth). The assay is classed as cell-based. To be noted: colony outgrowth in soft agar, stated as a range for the group. The procedure: Anchorage-independent growth is a characteristic of tumorigenic cell lines. Human tumor cells can be suspended in growth medium containing 0.3% agarose and an indicated concentration of a farnesyl transferase inhibitor. The solution can be overlayed onto growth medium solidified with 0.6% agarose containing the same concentration of farnesyl transferase inhibitor as the top layer. After the top layer is solidified, plates can be incubated for 10-16 days at 37° C. under 5% CO2 to allow colony outgrowth. After incubation, the colonies can be stained by overlaying the agar with a solution of MTT (3-[4,5-dimethyl-thiazol-2-yl]-2,5-diphenyltetrazolium bromide, Thiazolyl blue) (1 mg/mL in PBS). Colonies can be counted and the IC50's can be determined.

What is called IC50 is the concentration needed to halve the response being measured. Low values mean higher potency, high ones lower potency.

Take `CC1CCC(Cn2ccnc2)CN1C(=O)[C@H]1CN([C@H]2c3ccc(Cl)cc3CCc3cccnc32)CCN1C(=O)OC1CCCCC1` (stereo partly drawn) [Example 424]: the IC50 is 0.05 to 30 nM. Molecule `Cc1cn(C[C@H]2CCCN(C(=O)[C@H]3CN([C@@H]4c5ccc(Cl)cc5CCc5cc(Br)cnc54)CCN3C(=O)NC(C)(C)C)C2)cn1` [Example 191] yielded an IC50 of 0.05 to 30 nM. Turning to `Cc1cn(C[C@@H]2CCCN(C(=O)[C@H]3CN([C@@H]4c5ccccc5CCc5cc(Cl)cnc54)CCN3C(=O)C(C)(C)C)C2)cn1` [Example 303], the IC50 lay within 0.05 to 30 nM. For `Cc1cn(C[C@@H]2CCCN(C(=O)[C@H]3CN([C@H]4c5ccc(Cl)cc5CCc5cc(Cl)cnc54)CCN3C(=O)NC(C)(C)C)C2)cn1` [Example 238] the value was 0.05 to 30 nM; for `Cc1cn(C[C@@H]2CCCN(C(=O)[C@H]3CN([C@@H]4c5ccc(Cl)cc5CCc5cc(Cl)cnc54)CCN3C(=O)C(C)(C)C)C2)cn1` [Example 239], 0.05 to 30 nM. For `Cc1cn(CC2(O)CCCN(C(=O)[C@H]3CN([C@H]4c5ccc(Cl)cc5CCc5cccnc54)CCN3C(=O)OCc3ccccc3)C2)cn1` (single isomer, unassigned) [Example 422] the value was 0.05 to 30 nM; for `Cc1cn(CC2CCCN(C(=O)C3CN(C4c5ccccc5CCc5cc(Cl)cnc54)CCN3C(=O)OCC(C)(C)C)C2)cn1` (stereo not drawn) [Example 298], 0.05 to 30 nM; for `Cc1cn(C[C@H]2CN(C(=O)[C@H]3CN([C@H]4c5ccc(Cl)cc5CCc5cc(Br)cnc54)CCN3C(=O)OC3CCCCC3)CCS2(=O)=O)cn1` [Example 211], 0.05 to 30 nM.

`Cc1nccn1CC1CCCN(C(=O)C2CN(C3c4ncccc4CCc4cccc(Cl)c43)CCN2C(=O)OC(C)(C)C)C1` (stereo not drawn) [Example 395] displayed an IC50 of 0.05 to 30 nM. For `Cc1cn(CC2CCCN(C(=O)C3CN(C4c5ccc(Cl)cc5CCc5cc(Br)cnc54)CCN3C(=O)OCC(C)(C)C)C2)cn1` (stereo not drawn) [Example 188] the value was 0.05 to 30 nM; for `Cc1cn(C[C@@H]2CCCN(C(=O)[C@H]3CN([C@@H]4c5ccc(Cl)cc5CCc5cc(Br)cnc54)CCN3C(=O)C(C)(C)C)C2)cn1` [Example 179], 0.05 to 30 nM; for `CC(C)(C)OC(=O)N1CCN(C2c3ccc(Cl)cc3CCc3cc(Br)cnc32)CC1C(=O)N1CCS(=O)(=O)C(Cc2c[nH]cn2)C1` (stereo not drawn) [Example 155], 0.05 to 30 nM. Molecule `Cc1nccn1C[C@@H]1CCCN(C(=O)[C@H]2CN([C@H]3c4ccc(Cl)cc4CCc4cccnc43)CCN2C(=O)OC(C)(C)C)C1` [Example 30] displayed a half-inhibitory concentration (IC50) of 0.5 to 30 nM.

`Cc1cn(CC2CCCCN(C(=O)C3CN(C4c5ccc(Cl)cc5CCc5cccnc54)CCN3C(=O)OC3CCCCC3)C2)cn1` (single isomer, unassigned) [Example 409] registered an IC50 of 0.05 to 30 nM.

As to `Cc1nc(C)n(C[C@H]2CCCN(C(=O)[C@H]3CN([C@H]4c5ccc(Cl)cc5CCc5cc(Br)cnc54)CCN3C(=O)OC3CCCCC3)C2)c1C` [Example 214], the IC50 lay within 0.05 to 30 nM. For `Cc1cn(CC2CN(C(=O)C3CN(C4c5ccc(Cl)cc5CCc5cccnc54)CCN3C(=O)OC3CCCCC3)CCS2(=O)=O)cn1` (single isomer, unassigned) [47(L)] the value was 0.05 to 30 nM; for `CC(C)(C)OC(=O)N1CCN(C2c3ccc(Cl)cc3CCc3cc(Br)cnc32)CC1C(=O)N1CC[S+]([O-])C(Cn2ccnc2)C1` (stereo not drawn) [Example 7], 0.5 to 30 nM; for `Cc1cn(C[C@@H]2CCCN(C(=O)[C@H]3CN([C@H]4c5ccc(Cl)cc5CCc5cc(Cl)cnc54)CCN3C(=O)OC(C)C)C2)cn1` [Example 232], 0.05 to 30 nM.

The molecule `Cc1cn(C[C@H]2CCCN(C(=O)[C@H]3CN([C@H]4c5ccc(Cl)cc5CCc5cc(Br)cnc54)CCN3C(=O)OC3CCCCC3)C2)cn1` [Example 186] had an IC50 of 0.05 to 30 nM. As for `Cc1cn(C[C@@H]2CCCN(C(=O)[C@H]3CN([C@@H]4c5ccccc5CCc5cc(Cl)cnc54)CCN3C(=O)OCC3CC3)C2)cn1` [Example 299], the 50% inhibitory concentration (IC50) lay in the range of 0.05 to 30 nM.

With `Cc1c(CO)ncn1CC1CCCN(C(=O)C2CN(C3c4ccc(Cl)cc4CCc4cc(Br)cnc43)CCN2C(=O)OC(C)(C)C)C1` (stereo not drawn) [Example 160], the IC50 was 0.05 to 30 nM.
